# Data from PMC11748689, “Pharmacological and structural understanding of the Trypanosoma cruzi proteasome provides key insights for developing site-specific inhibitors” (The Journal of Biological Chemistry, 2024).
# Tests used:
# Format in all cases: biochemical
# [1] = biological target: recombinant Δβ1Δβ2 mutant T. cruzi proteasome (chymotrypsin-like activity) (Trypanosoma cruzi, UniProt V5BU39+V5C017); assay: biochemical
# Method: (§1) Point mutations were created in individual subunits using overlapping PCR from the original templates using Polh and Tn7L primers outside the genes and suitable internal primers to introduce selected mutations. For Δβ1Δβ2, β1 Thr 55, and β2 Thr 67 were both mutated to Ala, the β4^R mutant was produced by mutating Phe 24 and Ile 29 to Leu and Met respectively in β4 subunit.
# (§2) Chymotrypsin-, trypsin-, and caspase-like activity assays were performed using a commercially available Proteasome-Glo 3-substrate system assay kit (catalog number G8532) (Promega Corporation) according to the manufacturers protocols and as previously described ([24]).
# (§3) Prior to running assays, Proteasome-Glo buffer was used to reconstitute the luciferin detection reagent (containing a recombinant thermostable luciferase enzyme). The resuspended luciferin detection reagent was then mixed with Proteasome-Glo chymotrypsin-, trypsin- or caspase-like substrates (either 40 μM suc-Leu-Leu-Val-Tyr-aminoluciferin, 30 μM Z-Leu-Arg-Arg-aminoluciferin (Z is benzyloxycarbonyl) or 40 μM Z-Nle-Pro-Nle-Asp-aminoluciferin respectively (these concentrations represent 2x final assay concentrations)). These substrate mixtures were allowed to incubate at room temperature for 60 min prior to use to allow the removal of any contaminating free aminoluciferin.
# (§4) Proteasome assays were carried out using 384-well, white, low-volume plates (catalog number 784904) (Greiner Bio-One) at room temperature (∼23 °C) in 8 μl reaction volumes. When activity checks were to be run in the presence or absence of a fixed concentration of proteasome inhibitor, 80 nL of the inhibitor (at a concentration 100x the required final assay concentration), or 80 nL dimethylsulfoxide (DMSO), were dispensed into assay plates using an Echo 550 acoustic dispenser (Labcyte).
# (§5) A 1 in 2 dilution series of the various T. cruzi proteasome samples (native, recombinant WT, β4^R mutant, and Δβ1Δβ2 mutant) were produced in assay buffer (50 mM Tris–HCl, pH 7.5, 10 mM sucrose, 5 mM MgCl2, 1 mM DTT, 2 mM ATP, 150 mM NaCl, 1 mM EDTA, and 0.05 mg/ml bovine serum albumin). Subsequently, 4 μl of the various concentrations of diluted proteasome were added to assay plates using an electronic multichannel pipette (Integra Biosciences Ltd). When kinetic read activity checks were performed (Fig. 2), proteasome final assay concentrations used were 115 μg/ml, 115 μg/ml, and 230 μg/ml native proteasome (in the chymotrypsin, trypsin, and caspase assays, respectively), and 4.1 μg/ml, 3.4 μg/ml, or 1.4 μg/ml recombinant WT proteasome (in the chymotrypsin, trypsin, and caspase assays, respectively). When activity checks were to be run in the presence or absence of a proteasome inhibitor plates containing inhibitor or DMSO control were incubated with the relevant proteasome sample for 60 min at room temperature (this step was not included in activity check experiments where compounds were not used).
# (§6) Following the 60 min incubation of proteasome and compound (if required), assays were initiated with the addition of 4 μl of substrate mix (containing substrate and the luciferin detection reagent) using an electronic multichannel pipette. Final assay concentrations of substrates used were either 20 μM Suc-Leu-Leu-Val-Tyr-aminoluciferin, 15 μM Z-Leu-Arg-Arg-aminoluciferin, or 20 μM Z-Nle-Pro-Nle-Asp-aminoluciferin for chymotrypsin-, trypsin- or caspase-like activity respectively.
# (§7) Luminescence was read either kinetically or as an endpoint read using an EnVision 2102 Multilabel Reader (PerkinElmer, Inc) with 0.2 s per well reading time. When kinetic assays were run, luminescence was read every 5 min for 90 min. Endpoint assays were run for 60 min before luminescence was read. All data processing and linear fit analyses were performed using Microsoft Excel for Microsoft 365 software (Redmond, Washington; https://www.microsoft.com/).
# [2] = biological target: recombinant β4^R mutant T. cruzi proteasome (chymotrypsin-like activity) (Trypanosoma cruzi, UniProt V5BU39+V5C017, F24L/I29M); assay: biochemical
# Method: as §1, §2, §3, §4, §5, §6, §7
# [3] = biological target: native T. cruzi proteasome (trypsin-like activity, β2) (Trypanosoma cruzi, UniProt V5BCU3); assay: Trypsin-like activity assay (Proteasome-Glo), native T. cruzi proteasome; conditions: mean ± SD, N = 3; read-out: pIC50, Trypsin Assay, Native (converted)
# Method: as §2, §3
# (§8) When proteasome inhibitors were to be screened in the chymotrypsin, trypsin, and caspase assays, test compounds were dispensed into assay wells using an ECHO 550 acoustic dispenser (Labcyte) (final DMSO concentration 1%). Compounds were tested in either a 10-point concentration series (30 μM top final assay concentration, 1 in 3 dilution series) or a 12-point concentration series (30 μM top final assay concentration, 1 in 2.5 dilution series).
# (§9) Proteasome assays were then performed as described above using Promega Proteasome-Glo 3-substrate system assay kit. […] Diluted proteasome (4 μl) was added to assay plates using an electronic multichannel pipette (Integra Biosciences Ltd) and the proteasome incubated with compound for 60 min at room temperature.
# (§10) Following the 60 min incubation of proteasome and compounds, assays were initiated with the addition of 4 μl of a substrate mix (containing substrate and the luciferin detection reagent) using an electronic multichannel pipette. Final assay concentrations of substrates used were either 20 μM Suc-Leu-Leu-Val-Tyr-aminoluciferin, 15 μM Z-Leu-Arg-Arg-aminoluciferin, or 20 μM Z-Nle-Pro-Nle-Asp-aminoluciferin for chymotrypsin-, trypsin-, or caspase-like activity, respectively. Following a further 60 min assay incubation, luminescence was read using an EnVision 2102 Multilabel Reader (PerkinElmer, Inc) with 0.2 s per well reading time.
# (§11) All data processing was performed using Microsoft Excel for Microsoft 365 software.
# (§12) Nonlinear dose-response curve fitting was carried out using the Microsoft Excel add-in, XLfit (IDBS). Percentage inhibition data were either fitted to a standard 4-parameter logistic fit model (XLfit model 205; Equation 2) or a biphasic model (either XLfit model 300; Equation 3 or a custom biphasic model; Equation 4 (used in cases where the top and/or bottom parameters deviated from 100%/0% inhibition)).(2) y=A+(B−A)/1+(C/x)^D Where A = % inhibition at bottom, B = % inhibition at top, C = IC50, D = slope, x = inhibitor concentration and y = % inhibition.(3) y=(A/(1+10^(C−log(x))∗B))+((100−A)/(1+10^(D−log(x))∗B)) With A = % inhibition at midplateau, B = slope, C = log(IC50^A), D = log(IC50^B)).
# (§13) All IC50 data generated were converted to pIC50 using Equation 5.
# [4] = biological target: recombinant WT T. cruzi proteasome (trypsin-like activity, β2) (Trypanosoma cruzi, UniProt V5BCU3); assay: biochemical; conditions: for IC50: mean ± SD, N = 3, read-out: pIC50, Trypsin Assay, Wild-type (converted)
# Method: as §2, §3, §8, §9, §10, §11, §12, §13
# [5] = biological target: recombinant β4^R mutant T. cruzi proteasome (caspase-like activity) (Trypanosoma cruzi, UniProt V5BHX1); assay: Caspase-like activity assay (Proteasome-Glo), recombinant β4^R mutant T. cruzi proteasome
# Method: as §1, §2, §3, §4, §5, §6, §7
SMILES,IC50 [1],"inhibition of chymotrypsin activity, Δβ1Δβ2 mutant, fixed concentration ([1]; 1 μM compound (Fig. 7B))",IC50 [2],"inhibition of chymotrypsin activity, β4^R mutant, fixed concentration ([2]; 1 μM compound (Fig. 7C))",IC50 [3],IC50 [4],IC50 [5],"inhibition of caspase activity, β4^R mutant, fixed concentration ([5]; 1 μM compound (Fig. S4))","extent of inhibition in chymotrypsin dose-response curve, Δβ1Δβ2 mutant ([1]; top of dose-response curve)",inhibition of the trypsin activity ([4]; native and recombinant T. cruzi proteasomes)
O=C(Nc1ccc(F)c(-c2cn3nc(-c4ccccc4)cnc3n2)c1)N1CCCC1 [DDD01012248],0.0417 µM,full inhibition,2 µM,no notable inhibition,> 30.2 µM,> 30.2 µM,> 30.2 µM,did not inhibit,–,–
"O=C(Nc1ccc(F)c(C(=O)NC2CC2)c1)c1ccc(COc2ccccc2)o1 [DDD02091966, N-(3-(cyclopropylcarbamoyl)-4-fluorophenyl)-5-(phenoxymethyl)furan-2-carboxamide]",0.0457 µM,–,> 30.2 µM,–,> 30.2 µM,> 30.2 µM,> 30.2 µM,–,unable to fully inhibit,no inhibition
